Test results published in PubChem BioAssay AID1845202 (Molecular Pharmacology Branch, DTP, NCI, 2023).

Tested on: DMS 114 tumor spheroids, viability % test/control
Experiment: Anticancer human tumor DMS 114 cell line growth inhibition;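 also: spheroids exposed to compounds for 7 days before read-out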;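 as to viability, T/C: luminescence used as a proxy for viable cells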
Conditions: spheroids with HUVEC and MSC; for IC50: curve of first compound; for viability, T/C: stronger effect = lower value; active = viability on the fitted dose curve at most 10% of control; inactive = the rest
How it was run: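 Complex tumor spheroids combined malignant cells with endothelial cells and mesenchymal stem cells. DNA-damaging drugs and DNA repair inhibitors were tested alone and in combination, at half-log dilutions down from clinical Cmax (top 10 microM if Cmax unknown), 0.25% DMSO final.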

O=C(c1cc(Cc2n[nH]c(=O)c3ccccc23)ccc1F)N1CCN(C(=O)C2CC2)CC1 + Cn1nnc2c(C(N)=O)ncn2c1=O
20 µM: IC50 (second compound 1 µM)
21.9 µM: IC50 (second compound 3.16 µM)
10.2 µM: IC50 (second compound 10 µM)
inactive: viability, T/C (second compound 1 µM, first compound 0.0949 µM) 106% | viability, T/C (second compound 1 µM, first compound 0.3 µM) 99.2% | viability, T/C (second compound 1 µM, first compound 0.949 µM) 105% | viability, T/C (second compound 1 µM, first compound 3 µM) 106% | viability, T/C (second compound 1 µM, first compound 9.49 µM) 73.9% | viability, T/C (second compound 1 µM, first compound 30 µM) 37% | viability, T/C (second compound 3.16 µM, first compound 0.0949 µM) 112% | viability, T/C (second compound 3.16 µM, first compound 0.3 µM) 109% | viability, T/C (second compound 3.16 µM, first compound 0.949 µM) 108% | viability, T/C (second compound 3.16 µM, first compound 3 µM) 102% | viability, T/C (second compound 3.16 µM, first compound 9.49 µM) 68.5% | viability, T/C (second compound 3.16 µM, first compound 30 µM) 43.1% | viability, T/C (second compound 10 µM, first compound 0.0949 µM) 120% | viability, T/C (second compound 10 µM, first compound 0.3 µM) 111% | viability, T/C (second compound 10 µM, first compound 0.949 µM) 118% | viability, T/C (second compound 10 µM, first compound 3 µM) 81.6% | viability, T/C (second compound 10 µM, first compound 9.49 µM) 54.3% | viability, T/C (second compound 10 µM, first compound 30 µM) 30.1% | viability, T/C (second compound 31.6 µM, first compound 0.0949 µM) 110% | viability, T/C (second compound 31.6 µM, first compound 0.3 µM) 103% | viability, T/C (second compound 31.6 µM, first compound 0.949 µM) 83.7% | viability, T/C (second compound 31.6 µM, first compound 3 µM) 46.2% | viability, T/C (second compound 31.6 µM, first compound 9.49 µM) 28.1% | viability, T/C (second compound 31.6 µM, first compound 30 µM) 25.8% | viability, T/C (second compound 100 µM, first compound 0.0949 µM) 60.2% | viability, T/C (second compound 100 µM, first compound 0.3 µM) 48.7% | viability, T/C (second compound 100 µM, first compound 0.949 µM) 32.9% | viability, T/C (second compound 100 µM, first compound 3 µM) 25.4% | viability, T/C (second compound 100 µM, first compound 9.49 µM) 21.1% | viability, T/C (second compound 100 µM, first compound 30 µM) 19%
0.252 µM: IC50 (second compound 100 µM)
2.66 µM: IC50 (second compound 31.6 µM)
